What was measured:
Assay in all cases: relative viability (nuclei count vs DMSO), 5 days (fraction); higher = more cells survive
ChaGo-K-1 = test system: ChaGo-K-1
In short: (§1)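 Medians of duplicate plates are given as relative viability. That measure is the nuclei count in treated wells divided by the count in vehicle wells. Counts were taken on 4× images of lung cancer cell lines in 1536-well plates, 5 days after pin-tool dosing the day after seeding with one drug alone or a fixed anchor-drug dose plus five library-drug doses (not always all listed) in √10 steps.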

EKVX = test system: EKVX
In short: as §1

EMC-BAC-2 = test system: EMC-BAC-2
In short: as §1

EPLC-272H = test system: EPLC-272H
In short: as §1

H3255 = test system: H3255
In short: as §1

HARA = test system: HARA
In short: as §1

HCC-15 = test system: HCC-15
In short: as §1

HCC-827 = test system: HCC-827
In short: as §1

LC-2-ad = test system: LC-2-ad
In short: as §1

LCLC-103H = test system: LCLC-103H
In short: as §1

LK-2 = test system: LK-2
In short: as §1

NCI-H1648 = test system: NCI-H1648
In short: as §1

NCI-H1792 = test system: NCI-H1792
In short: as §1

NCI-H1793 = test system: NCI-H1793
In short: as §1

NCI-H1944 = test system: NCI-H1944
In short: as §1

NCI-H2170 = test system: NCI-H2170
In short: as §1

NCI-H23 = test system: NCI-H23
In short: as §1

NCI-H2405 = test system: NCI-H2405
In short: as §1

NCI-H3122 = test system: NCI-H3122
In short: as §1

RERF-LC-KJ = test system: RERF-LC-KJ
In short: as §1

SW 1573 = test system: SW 1573
In short: as §1

SW 900 = test system: SW 900
In short: as §1

Oc1nc(-c2ccc(C(F)(F)F)cc2)nc2c1CSCC2 [XAV939] + CC(=O)c1c(C)c2cnc(Nc3ccc(N4CCNCC4)cn3)nc2n(C2CCCC2)c1=O [Palbociclib] (partner 0.5 µM)
relative viability (ChaGo-K-1; first compound 0.08 µM): 0.99 | relative viability (ChaGo-K-1; first compound 0.253 µM): 0.925 | relative viability (ChaGo-K-1; first compound 0.8 µM): 0.915 | relative viability (ChaGo-K-1; first compound 2.53 µM): 0.887 | relative viability (EKVX; first compound 0.08 µM): 0.383 | relative viability (EKVX; first compound 0.253 µM): 0.343 | relative viability (EKVX; first compound 0.8 µM): 0.34 | relative viability (EKVX; first compound 2.53 µM): 0.227 | relative viability (EMC-BAC-2; first compound 0.08 µM): 0.555 | relative viability (EMC-BAC-2; first compound 0.253 µM): 0.491 | relative viability (EMC-BAC-2; first compound 0.8 µM): 0.478 | relative viability (EMC-BAC-2; first compound 2.53 µM): 0.338 | relative viability (EPLC-272H; first compound 0.08 µM): 0.342 | relative viability (EPLC-272H; first compound 0.253 µM): 0.251 | relative viability (EPLC-272H; first compound 0.8 µM): 0.305 | relative viability (EPLC-272H; first compound 2.53 µM): 0.332 | relative viability (H3255; first compound 0.08 µM): 0.311 | relative viability (H3255; first compound 0.253 µM): 0.317 | relative viability (H3255; first compound 0.8 µM): 0.314 | relative viability (H3255; first compound 2.53 µM): 0.291 | relative viability (HARA; first compound 0.08 µM): 0.334 | relative viability (HARA; first compound 0.253 µM): 0.22 | relative viability (HARA; first compound 0.8 µM): 0.234 | relative viability (HARA; first compound 2.53 µM): 0.242 | relative viability (HCC-15; first compound 0.08 µM): 0.709 | relative viability (HCC-15; first compound 0.253 µM): 0.68 | relative viability (HCC-15; first compound 0.8 µM): 0.721 | relative viability (HCC-15; first compound 2.53 µM): 0.705 | relative viability (HCC-827; first compound 0.08 µM): 0.571 | relative viability (HCC-827; first compound 0.253 µM): 0.459 | relative viability (HCC-827; first compound 0.8 µM): 0.584 | relative viability (HCC-827; first compound 2.53 µM): 0.517 | relative viability (LC-2-ad; first compound 0.08 µM): 0.502 | relative viability (LC-2-ad; first compound 0.253 µM): 0.397 | relative viability (LC-2-ad; first compound 0.8 µM): 0.462 | relative viability (LC-2-ad; first compound 2.53 µM): 0.478 | relative viability (LCLC-103H; first compound 0.08 µM): 0.53 | relative viability (LCLC-103H; first compound 0.253 µM): 0.499 | relative viability (LCLC-103H; first compound 0.8 µM): 0.514 | relative viability (LCLC-103H; first compound 2.53 µM): 0.449 | relative viability (LK-2; first compound 0.08 µM): 0.526 | relative viability (LK-2; first compound 0.253 µM): 0.626 | relative viability (LK-2; first compound 0.8 µM): 0.609 | relative viability (LK-2; first compound 2.53 µM): 0.545 | relative viability (NCI-H1648; first compound 0.253 µM): 0.28 | relative viability (NCI-H1648; first compound 0.8 µM): 0.27 | relative viability (NCI-H1648; first compound 2.53 µM): 0.216 | relative viability (NCI-H1792; first compound 0.08 µM): 0.777 | relative viability (NCI-H1792; first compound 0.253 µM): 0.425 | relative viability (NCI-H1792; first compound 0.8 µM): 0.675 | relative viability (NCI-H1792; first compound 2.53 µM): 0.558 | relative viability (NCI-H1793; first compound 0.08 µM): 0.353 | relative viability (NCI-H1793; first compound 0.253 µM): 0.317 | relative viability (NCI-H1793; first compound 0.8 µM): 0.307 | relative viability (NCI-H1793; first compound 2.53 µM): 0.281 | relative viability (NCI-H1944; first compound 0.08 µM): 0.347 | relative viability (NCI-H1944; first compound 0.253 µM): 0.337 | relative viability (NCI-H1944; first compound 0.8 µM): 0.34 | relative viability (NCI-H1944; first compound 2.53 µM): 0.267 | relative viability (NCI-H2170; first compound 0.08 µM): 0.41 | relative viability (NCI-H2170; first compound 0.253 µM): 0.263 | relative viability (NCI-H2170; first compound 0.8 µM): 0.436 | relative viability (NCI-H2170; first compound 2.53 µM): 0.322 | relative viability (NCI-H23; first compound 0.08 µM): 0.529 | relative viability (NCI-H23; first compound 0.8 µM): 0.465 | relative viability (NCI-H23; first compound 2.53 µM): 0.386 | relative viability (NCI-H2405; first compound 0.08 µM): 0.554 | relative viability (NCI-H2405; first compound 0.253 µM): 0.513 | relative viability (NCI-H2405; first compound 0.8 µM): 0.492 | relative viability (NCI-H2405; first compound 2.53 µM): 0.386 | relative viability (NCI-H3122; first compound 0.08 µM): 0.2 | relative viability (NCI-H3122; first compound 0.253 µM): 0.196 | relative viability (NCI-H3122; first compound 0.8 µM): 0.184 | relative viability (NCI-H3122; first compound 2.53 µM): 0.153 | relative viability (RERF-LC-KJ; first compound 0.08 µM): 1.13 | relative viability (RERF-LC-KJ; first compound 0.253 µM): 0.828 | relative viability (RERF-LC-KJ; first compound 0.8 µM): 1.02 | relative viability (RERF-LC-KJ; first compound 2.53 µM): 0.761 | relative viability (SW 1573; first compound 0.08 µM): 0.414 | relative viability (SW 1573; first compound 0.253 µM): 0.3 | relative viability (SW 1573; first compound 0.8 µM): 0.326 | relative viability (SW 1573; first compound 2.53 µM): 0.279 | relative viability (SW 900; first compound 0.253 µM): 0.539 | relative viability (SW 900; first compound 0.8 µM): 0.56 | relative viability (SW 900; first compound 2.53 µM): 0.285
